Test results as given in patent publication US12152012B2, “BRAG2 inhibitors and applications thereof” (CENTRE NATIONAL DE LA RECHERCHE SCIENTIFIQUE, priority 2018, dated 2024).

Legend:
[1] = test system: EEA1 (early endosome marker) in Hela cells; experiment: Immunostaining and confocal microscopy of Hela cells; type: cell-based, human; details: 50 μM, 30 min
Experimental: FIG. 1. Bragsin2 affects Arf pathways in cells • a. Chemical structures of Bragsin1 and Bragsin2 and derivatives used in this study. Chemical synthesis and structural characterization of the compounds are described in example 6. • b. Bragsin2 disperses the TGN46 and GM130 markers. HeLa cells were treated with either DMSO (0.25%) or Bragsin2 (50 μM) for 30 min, immunostained for TGN46, GM130 or EEA1 (green channel) and analysed by confocal microscopy. Dispersion of GM130 and TGN46 by Bragsin2 is reversible. Hela cells were treated as in FIG. 1a and were incubated for an additional 30 min in fresh medium (wash panel) prior to immunostaining and confocal microscopy analysis. Expression of Arf-mCherry constructs carrying an activating mutation rescues the effect of Bragsin2. Hela cells were transfected with constitutively active Q/L mutants of Arf-mCherry. Note the difference between non-transfected cells (white asterisk) and transfected cells. Scale bars, 10 μm.
Hela cells were grown in Dulbecco's modified Eagle's medium supplemented with Glutamax™ and 10% fetal bovine serum (Invitrogen). For immunofluorescence studies, cells were grown on Labtek glass slides (Nunc) and transfected for 18 to 24 h using Lipofectamine 2000 (Invitrogen), according to the supplier's instructions. When specified, cells were treated with the indicated concentration of small molecule or corresponding volume of vehicle (DMSO) in growth medium for 30 min at 37° C.
Immunostaining procedure was as described in (Viaud, J. et al. Structure-based discovery of an inhibitor of Arf activation by Sec7 domains through targeting of protein-protein complexes. Proc Natl Acad Sci USA 104, 10370-5 (2007)) except that secondary antibody incubation was performed for 1h using Alexa 488-conjugated goat anti-mouse (1:600) or donkey anti-sheep (1:500) IgG and Alexa 647-conjugated phalloidin (1:100). Anti-GM130 was used at dilution 1:200. Images were bidirectionally recorded using an inverted Leica TCS SP8 laser-scanning confocal microscope with a 100× (N. A. 1.40) oil objective (HCX APO, Leica). Fluorochromes were detected sequentially using excitation laser lines at 488 nm (Alexa 488), 594 nm (mCherry) and 633 nm (Alexa 647). Stacks were generated using a z-step of 0.5 μm and processed using Fiji/ImageJ (Schindelin, J. et al. Fiji: an open-source platform for biological-image analysis. Nat Methods 9, 676-82 (2012)). Images are representative of at least two independent experiments.

yeast ArfGEF Sec7p = target: T1, yeast ArfGEF Sec7p (Saccharomyces cerevisiae, UniProt P11075); experiment: Yeast chemogenomic screen; type: cell-based
T1 construct: endogenous in cells; host or cells: yeast
T1 sequence (P11075 whole entry): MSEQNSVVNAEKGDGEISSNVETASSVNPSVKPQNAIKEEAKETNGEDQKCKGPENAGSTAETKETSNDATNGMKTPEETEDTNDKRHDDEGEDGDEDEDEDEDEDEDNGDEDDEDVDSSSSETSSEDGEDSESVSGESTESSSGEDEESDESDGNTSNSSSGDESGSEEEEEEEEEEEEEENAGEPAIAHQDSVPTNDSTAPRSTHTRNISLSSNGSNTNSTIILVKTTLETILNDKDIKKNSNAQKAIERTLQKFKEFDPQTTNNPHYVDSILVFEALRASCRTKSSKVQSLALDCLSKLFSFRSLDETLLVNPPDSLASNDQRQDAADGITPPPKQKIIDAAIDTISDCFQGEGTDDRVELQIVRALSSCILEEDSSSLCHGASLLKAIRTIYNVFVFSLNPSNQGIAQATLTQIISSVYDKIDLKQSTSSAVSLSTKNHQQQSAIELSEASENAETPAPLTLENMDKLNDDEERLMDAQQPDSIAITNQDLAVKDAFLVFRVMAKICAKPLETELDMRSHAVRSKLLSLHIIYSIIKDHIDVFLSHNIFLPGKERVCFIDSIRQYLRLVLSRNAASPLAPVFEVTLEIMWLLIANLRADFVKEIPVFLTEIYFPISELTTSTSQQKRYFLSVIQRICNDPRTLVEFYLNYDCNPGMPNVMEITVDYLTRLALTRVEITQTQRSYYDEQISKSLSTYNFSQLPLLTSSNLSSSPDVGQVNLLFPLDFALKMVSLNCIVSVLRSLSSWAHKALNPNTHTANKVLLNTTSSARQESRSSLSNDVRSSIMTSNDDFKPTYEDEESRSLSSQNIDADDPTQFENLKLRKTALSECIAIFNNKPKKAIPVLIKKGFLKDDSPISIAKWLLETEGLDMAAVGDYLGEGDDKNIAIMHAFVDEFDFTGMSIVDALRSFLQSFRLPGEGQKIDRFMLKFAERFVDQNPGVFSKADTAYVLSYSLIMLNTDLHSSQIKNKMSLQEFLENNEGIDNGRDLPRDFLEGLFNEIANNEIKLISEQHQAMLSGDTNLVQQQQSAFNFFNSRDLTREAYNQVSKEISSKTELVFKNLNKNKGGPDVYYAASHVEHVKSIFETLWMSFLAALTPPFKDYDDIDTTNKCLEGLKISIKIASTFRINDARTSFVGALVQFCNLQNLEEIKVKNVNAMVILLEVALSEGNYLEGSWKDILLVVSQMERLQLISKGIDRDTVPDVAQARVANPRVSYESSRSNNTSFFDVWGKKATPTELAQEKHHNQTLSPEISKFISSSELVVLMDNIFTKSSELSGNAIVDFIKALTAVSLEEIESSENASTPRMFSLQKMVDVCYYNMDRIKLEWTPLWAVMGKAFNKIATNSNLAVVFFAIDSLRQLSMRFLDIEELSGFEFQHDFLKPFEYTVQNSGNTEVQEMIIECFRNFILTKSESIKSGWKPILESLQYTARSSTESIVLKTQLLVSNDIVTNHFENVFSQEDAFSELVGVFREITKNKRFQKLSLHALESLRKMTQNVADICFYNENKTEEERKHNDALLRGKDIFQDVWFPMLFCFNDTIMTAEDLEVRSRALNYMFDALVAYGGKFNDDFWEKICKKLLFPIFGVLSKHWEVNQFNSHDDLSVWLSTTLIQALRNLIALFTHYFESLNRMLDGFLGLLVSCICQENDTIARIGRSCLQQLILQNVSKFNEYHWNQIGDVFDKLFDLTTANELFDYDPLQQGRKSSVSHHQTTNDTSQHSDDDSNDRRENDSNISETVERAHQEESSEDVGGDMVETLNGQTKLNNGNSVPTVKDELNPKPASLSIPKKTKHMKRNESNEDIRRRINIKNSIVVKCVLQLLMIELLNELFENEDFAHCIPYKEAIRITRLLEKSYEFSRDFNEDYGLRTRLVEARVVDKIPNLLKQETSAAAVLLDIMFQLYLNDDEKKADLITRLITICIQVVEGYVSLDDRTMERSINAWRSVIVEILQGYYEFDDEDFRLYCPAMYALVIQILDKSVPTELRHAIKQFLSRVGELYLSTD

| Effect on function of yeast ArfGEF Sec7p (yeast ArfGEF Sec7p) | SMILES | Effect on early endosome marker EEA1 [1] |
| --- | --- | --- |
| – | COc1ccc2oc(C(F)(F)F)cc(=O)c2c1[N+](=O)[O-] [Bragsin2, 6-methoxy-5-nitro-2-(trifluoromethyl)-4H-chromen-4-one] | no effect |
| perturbs the function | Cc1ccc2oc(C(F)(F)F)cc(=O)c2c1[N+](=O)[O-] [Bragsin1, 6-methyl-5-nitro-2-(trifluoromethyl)-4H-chromen-4-one] | – |
